From ChEMBL document CHEMBL4513160, “CO-ADD screening of MMV (CH) - Small Polar Library”
≈ marks a conversion by molar mass, not a printed value.

Tests used:
Pseudomonas aeruginosa [1] = assay: Antibacterial activity against Pseudomonas aeruginosa PAO397 [PAO1 d(mexAB-oprM) d(mexCD-oprJ) d(mexEF-oprN) d(mexJKL) d(mexXY) d(opmH)] (CO-ADD:GN_211); MIC in CAMBH media using NBS plates, by OD(600); format: functional; conditions: ASSAY_TEST Inhibition of Bacterial Growth, detection method Absorption (OD600), MEDIA CAMHB, plate type 384well, CORNING #3640, time 18 hr
Pseudomonas aeruginosa [2] = assay: microbe, parasite or virus in culture; conditions: ATCC 27853, 18 h, ASSAY_TEST Inhibition of Bacterial Growth, detection method Absorption (OD600), MEDIA CAMHB, plate type 384well, NBS, CORNING #3640
Description: Antibacterial activity against Pseudomonas aeruginosa ATCC 27853 (CO-ADD:GN_042); MIC in CAMBH media using NBS plates, by OD(600)

Acinetobacter baumannii = assay: microbe, parasite or virus in culture; conditions: ATCC 19606, 18 h, ASSAY_TEST Inhibition of Bacterial Growth, detection method Absorption (OD600), MEDIA CAMHB, plate type 384well, NBS, CORNING #3640
Description: Antibacterial activity against Acinetobacter baumannii ATCC 19606 (CO-ADD:GN_034); MIC in CAMBH media using NBS plates, by OD600

Compound	MIC (Pseudomonas aeruginosa [1]) [µM]	MIC (Pseudomonas aeruginosa [2]) [µM]	MIC (Acinetobacter baumannii) [µM]
Cc1ncc(C)c(N)n1	> 300	300 (≈ 36.9 µg/mL)	> 300
c1cc2c(cc1C1=NN=C(NC3CC3)SC1)OCCO2	> 300	> 300	> 300
O=C(c1ccc(Br)s1)N1CCN(c2ccccn2)CC1	> 300	> 300	> 300
CN(C)CCC(=O)c1ccc(F)cc1	> 300	> 300	> 300
NCCNc1ccc2ccccc2n1	> 300	> 300	> 300
C[C@@]1(N)C[C@H]1c1ccccc1	200 (≈ 29.4 µg/mL)	> 300	> 300
N#Cc1cc(N2CCC[C@@H]2CO)nc2ccccc12	> 300	> 300	> 300
CC(C)CCC(=O)N[C@@H]1CN(C)C[C@H]1CN(C)C	> 300	> 300	> 300
Clc1cccnc1N1CCC(Nc2cccnc2)CC1	> 300	> 300	> 300
Cc1ccc(C(=O)N2CCN(c3nccs3)CC2)o1	> 300	> 300	> 300
OCCCN(CCO)Cc1c(Cl)ccc2cccnc12	> 300	> 300	> 300
c1cn2c(n1)COCC2	> 300	> 300	> 300
Cc1cscc1C(=O)Nc1ncnn1C	> 300	> 300	> 300
CN(C)C(=O)CNC(=O)NCc1cc(F)ccc1Br	> 300	> 300	> 300
N#CC(c1ccc(Br)cc1)N1CCNCC1 (stereo unspecified)	> 300	> 300	> 300
Cc1cccc(S(=O)(=O)NC2CCNC2)c1Cl (stereo unspecified)	> 300	> 300	> 300
COc1cc(F)cc(NCC(=O)NCc2ccco2)c1	> 300	> 300	> 300
NCC1CCN(Cc2cccc(F)c2)CC1	> 300	> 300	> 300
CCc1cccc(S(=O)(=O)N2CCC(NC)C2)c1 (stereo unspecified)	> 300	> 300	> 300
CNC(=O)Cn1cc(-c2cccc3cnccc23)cn1	> 300	> 300	> 300
CC(=O)c1ccc(NC(=O)CCc2cccs2)nc1	> 300	> 300	> 300

Compound	MIC (Pseudomonas aeruginosa [1]) [µM]	MIC (Pseudomonas aeruginosa [2]) [µM]	MIC (Acinetobacter baumannii) [µM]
COc1ccc(CNCCCSc2nnnn2C)cc1	> 300	> 300	> 300
NC1CSCc2c(F)cccc21 (stereo unspecified)	> 300	> 300	> 300
Ic1nnnn1-c1ccccc1	25 (≈ 6.8 µg/mL)	60 (≈ 16.3 µg/mL)	> 300
CN(C)C(=O)CCNc1ccnc2ccc(Cl)cc12	> 300	> 300	> 300
c1ccc(Nc2nccs2)nc1	> 300	> 300	> 300
OC1(CNCc2ccc(Br)c3cccnc23)CCOC1 (stereo unspecified)	> 300	> 300	> 300
CC(C)CNC(=O)CSc1n[nH]c(-c2ccccn2)n1	60 (≈ 17.5 µg/mL)	> 300	> 300
Cc1cc(C)c(C#N)c(N2C[C@H](C3CC3)[C@@H](N)C2)n1	> 300	> 300	> 300
CN(Cc1ccc(O)cc1)C(=O)c1cc(Cl)c[nH]1	> 300	> 300	> 300
OC[C@@H]1CCCN1Cc1ccc(F)c2cccnc12	> 300	> 300	> 300
O=C(Nc1cc[nH]n1)c1csc(I)c1	> 300	> 300	> 300
CNC(=O)C1CCN(C(=O)Nc2ccc(C)c(Cl)c2)C1 (stereo unspecified)	90 (≈ 26.6 µg/mL)	> 300	> 300
CCS(=O)(=O)NCC(N)c1ccc(C(C)C)cc1 (stereo unspecified)	> 300	> 300	> 300
NCC(=O)N1CCCC(CCc2ccc(F)c(F)c2)C1 (stereo unspecified)	> 300	> 300	> 300
Cc1ccncc1NC1CS(=O)(=O)c2ccccc21 (stereo unspecified)	> 300	> 300	> 300
CCCSc1ccc(NC(=O)NCCN)cc1	> 300	> 300	> 300
COCC(O)CNc1c(C)c(C)nc2ccccc12 (stereo unspecified)	> 300	> 300	> 300
NCC(=O)N1CCCC(CCc2ccc(F)cc2)C1 (stereo unspecified)	> 300	> 300	> 300
NCCS(=O)(=O)N1CCCc2ccccc21	> 300	> 300	> 300
Cn1ncnc1NC(=O)c1ccc(C#N)cc1	200 (≈ 45.4 µg/mL)	200 (≈ 45.4 µg/mL)	> 300
CCC(C)(C)NC(=O)c1nnn(-c2ccccc2)c1C	> 300	> 300	> 300
